Measurements taken from patent US20240025884A1 (Dong-A ST Co., Ltd., priority 2022, published 2024).

biological target: GCN2 (Homo sapiens (Human), UniProt Q9P2K8); assay: GCN2 Biochemical Assay (TR-FRET, GFP-eIF2S1 substrate phosphorylation); conditions: read-out: IC50 (GCN2 Inhibitory Activity)
Experimental: Experimental Example 1: GCN2 Biochemical Assay
An inhibitory effect of the inventive compound on GCN2 was identified as follows.
384-well (Greiner #784075) (or 1536-well [Greiner #782075]) plates containing 60 nl (or 20 nl for 1536-well) of compound in 100% DMSO (10 concentrations serially diluted 3.16-fold) were prepared. Two copies of plates were used—one for the GCN2 assay and a second for an artifact plate. Working reagents were prepared as follows—reaction buffer: Tris pH 7.5 20 mM, MgCl2 5 mM, DTT 1 mM, Brij-35 0.005%, EGTA 0.5 mM in water; 2× enzyme solution: GCN2 (produced in-house) 1.6 nM in reaction buffer; 2× substrate solution: GFP-eIFS1 (Thermo Fisher Scientific, PV4809) 50 nM, ATP 0.2 mM, tRNA 0.4 mg/ml in reaction buffer; p-GFP-eIF2S1 (artifact) solution: p-GFP-eIFS1 (produced by incubation of 100 nM GFP-eIF2S1 in reaction buffer with 100 uM ATP and 1 nM PERK KD enzyme for 3 hr at room temperature) 2 nM in reaction buffer; 3× stop/antibody solution: p-GFP-EIF2S1 Th-Ab (Thermo Fisher Scientific, PV4816) 6 nM, AZ13933939 3 uM, BSA 3% in reaction buffer. Reagents were loaded onto a liquid dispenser (Certus FLEX, Trajan Scientific and Medical), and 3 ul (1 ul for 1536-well) of 2× enzyme solution, followed by 3 ul (1 ul for 1536-well) of 2× substrate solution was added to the plates. When small numbers of plates were processed, the enzyme solution was added first to all plates, then the valve used for the substrate solution was primed immediately prior to use. Plates were tapped or spun 1 min/1K/RT to ensure proper mixing, followed by incubation at room temperature for 70 mins, covered/stacked in the dark. For the artifact plate, 6 ul of p-GFP-eIF2S1 solution was added prior to adding the stop/antibody solution. 3 ul (1 ul for 1536-well) of 3× stop/antibody solution was added to the plates, followed by a spin-down for 1 min/1K/RT, and incubation for 2-3 hr, sealed or covered with lids in the dark at room temperature. Plates were read on a plate reader (PHERAstar FSX, BMF Labtech) at Ex 340/Em 490/Em 520 nm.

Chain of GCN2 (Q9P2K8 whole entry): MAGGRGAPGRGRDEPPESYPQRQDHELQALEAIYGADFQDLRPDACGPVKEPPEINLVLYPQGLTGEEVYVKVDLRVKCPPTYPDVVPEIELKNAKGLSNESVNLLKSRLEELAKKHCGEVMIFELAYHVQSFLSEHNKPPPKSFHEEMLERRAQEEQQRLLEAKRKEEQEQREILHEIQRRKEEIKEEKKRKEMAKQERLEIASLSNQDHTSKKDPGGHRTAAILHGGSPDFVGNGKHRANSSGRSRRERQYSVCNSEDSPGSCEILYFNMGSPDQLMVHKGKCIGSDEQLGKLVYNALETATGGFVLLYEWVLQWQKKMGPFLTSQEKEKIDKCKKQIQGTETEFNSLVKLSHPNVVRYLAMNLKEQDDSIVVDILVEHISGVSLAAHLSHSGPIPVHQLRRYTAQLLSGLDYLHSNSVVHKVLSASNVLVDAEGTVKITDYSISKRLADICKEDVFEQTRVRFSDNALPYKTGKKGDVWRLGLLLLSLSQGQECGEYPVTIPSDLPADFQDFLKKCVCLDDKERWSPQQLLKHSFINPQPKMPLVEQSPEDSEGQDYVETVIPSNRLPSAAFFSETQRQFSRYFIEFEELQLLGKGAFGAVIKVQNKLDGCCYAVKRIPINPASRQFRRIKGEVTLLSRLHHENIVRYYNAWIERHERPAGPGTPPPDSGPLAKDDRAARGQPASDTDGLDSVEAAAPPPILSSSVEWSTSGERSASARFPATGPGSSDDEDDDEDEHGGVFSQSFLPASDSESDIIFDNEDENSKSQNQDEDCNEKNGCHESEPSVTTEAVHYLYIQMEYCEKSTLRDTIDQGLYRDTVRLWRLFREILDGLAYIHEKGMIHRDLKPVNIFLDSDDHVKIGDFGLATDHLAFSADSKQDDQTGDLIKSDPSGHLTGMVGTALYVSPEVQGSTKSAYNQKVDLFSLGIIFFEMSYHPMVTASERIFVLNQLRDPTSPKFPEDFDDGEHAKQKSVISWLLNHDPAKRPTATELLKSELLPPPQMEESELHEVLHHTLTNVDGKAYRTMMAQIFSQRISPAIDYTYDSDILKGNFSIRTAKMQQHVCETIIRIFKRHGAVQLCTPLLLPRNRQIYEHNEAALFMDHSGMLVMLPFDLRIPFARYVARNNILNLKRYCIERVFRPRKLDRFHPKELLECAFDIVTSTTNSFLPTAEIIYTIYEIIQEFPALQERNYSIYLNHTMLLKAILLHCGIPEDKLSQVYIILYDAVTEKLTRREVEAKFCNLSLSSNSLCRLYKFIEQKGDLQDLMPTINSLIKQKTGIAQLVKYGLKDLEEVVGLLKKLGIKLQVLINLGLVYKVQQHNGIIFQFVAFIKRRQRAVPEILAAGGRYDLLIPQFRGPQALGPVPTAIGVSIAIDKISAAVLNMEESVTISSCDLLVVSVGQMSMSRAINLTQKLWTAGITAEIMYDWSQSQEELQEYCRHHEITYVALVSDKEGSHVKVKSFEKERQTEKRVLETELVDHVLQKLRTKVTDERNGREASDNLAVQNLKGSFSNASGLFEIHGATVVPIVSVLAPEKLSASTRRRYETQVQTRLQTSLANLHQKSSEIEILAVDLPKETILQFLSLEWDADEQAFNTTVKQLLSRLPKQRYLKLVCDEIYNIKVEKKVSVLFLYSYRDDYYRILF

Row | IC50 | Structure (SMILES)
1 | 10 to 100 nM | Cc1cnc(Nc2cc(C)n(C)n2)nc1-c1c[nH]c2c(N(C)C(=O)CN3CC[C@H](Oc4ccncn4)C3)cccc12 [Example 21, (S)-N-(3-(2-((1,5-dimethyl-1H-pyrazol-3-yl)amino)-5-methylpyrimidin-4-yl)-1H-indol-7-yl)-N-methyl-2-(3-(pyrimidin-4-yloxy)pyrrolidin-1-yl)acetamide]
2 | 100 to 1000 nM | Cc1cnc(Nc2cc(C)n(C)n2)nc1-c1c[nH]c2c(NC(=O)C(C)N3CCCC3)cccc12 (stereo not drawn) [Example 22, N-(3-(2-((1,5-dimethyl-1H-pyrazol-3-yl)amino)-5-methylpyrimidin-4-yl)-1H-indol-7-yl)-2-(pyrrolidin-1-yl)propanamide]
3 | 100 to 1000 nM | Cc1cnc(Nc2cc(C)n(C)n2)nc1-c1c[nH]c2c(NC(=O)C(C)N3CC[C@H](Oc4ccncc4)C3)cccc12 (stereo partly drawn) [Example 23, N-(3-(2-((1,5-dimethyl-1H-pyrazol-3-yl)amino)-5-methylpyrimidin-4-yl)-1H-indol-7-yl)-2-((S)-3-(pyridin-4-yloxy)pyrrolidin-1-yl)propenamide]
4 | 100 to 1000 nM | Cc1cnc(Nc2cc(C)n(C)n2)nc1-c1c[nH]c2c(NC(=O)C(C)(C)N3CCCC3)cccc12 [Example 24, N-(3-(2-((1,5-dimethyl-1H-pyrazol-3-yl)amino)-5-methylpyrimidin-4-yl)-1H-indol-7-yl)-2-methyl-2-(pyrrolidin-1-yl)propenamide]
5 | > 1000 nM | Cc1cnc(Nc2cc(C)n(C)n2)nc1-c1c[nH]c2c(NC(=O)C(C)(C)N3CC[C@H](Oc4ccncc4)C3)cccc12 [Example 25, (S)-N-(3-(2-((1,5-dimethyl-1H-pyrazol-3-yl)amino)-5-methylpyrimidin-4-yl)-1H-indol-7-yl)-2-methyl-2-(3-(pyridin-4-yloxy)pyrrolidin-1-yl)propanamide]
6 | 10 to 100 nM | Cc1cnc(Nc2cc(C)n(C)n2)nc1-c1c[nH]c2c(NC(=O)CN3CC(O)C3)cccc12 [Example 26, N-(3-(2-((1,5-dimethyl-1H-pyrazol-3-yl)amino)-5-methylpyrimidin-4-yl)-1H-indol-7-yl)-2-(3-hydroxyazetidin-1-yl)acetamide]
7 | 10 to 100 nM | Cc1cnc(Nc2cc(C)n(C)n2)nc1-c1c[nH]c2c(NC(=O)CN3CC(OCc4ccncc4)C3)cccc12 [Example 27, N-(3-(2-((1,5-dimethyl-1H-pyrazol-3-yl)amino)-5-methylpyrimidin-4-yl)-1H-indol-7-yl)-2-(3-(pyridin-4-ylmethoxy)azetidin-1-yl)acetamide]
8 | 10 to 100 nM | Cc1cnc(Nc2cc(C)n(C)n2)nc1-c1c[nH]c2c(NC(=O)CN3CC(Oc4ccncc4)C3)cccc12 [Example 28, N-(3-(2-((1,5-dimethyl-1H-pyrazol-3-yl)amino)-5-methylpyrimidin-4-yl)-1H-indol-7-yl)-2-(3-(pyridin-4-yloxy)azetidin-1-yl)acetamide]
9 | 10 to 100 nM | Cc1cnc(Nc2cc(C)n(C)n2)nc1-c1c[nH]c2c(NC(=O)CN3CC(Oc4ccncn4)C3)cccc12 [Example 29, N-(3-(2-((1,5-dimethyl-1H-pyrazol-3-yl)amino)-5-methylpyrimidin-4-yl)-1H-indol-7-yl)-2-(3-(pyrimidin-4-yloxy)azetidin-1-yl)acetamide]
10 | 100 to 1000 nM | Cc1cnc(Nc2cc(C)n(C)n2)nc1-c1c[nH]c2c(NC(=O)CN3CC(Oc4cccnc4)C3)cccc12 [Example 30, N-(3-(2-((1,5-dimethyl-1H-pyrazol-3-yl)amino)-5-methylpyrimidin-4-yl)-1H-indol-7-yl)-2-(3-(pyridin-3-yloxy)azetidin-1-yl)acetamide]
11 | 10 to 100 nM | COC(=O)C1CN(CC(=O)Nc2cccc3c(-c4nc(Nc5cc(C)n(C)n5)ncc4C)c[nH]c23)C1 [Example 31, methyl 1-(2-((3-(2-((1,5-dimethyl-1H-pyrazol-3-yl)amino)-5-methylpyrimidin-4-yl)-1H-indol-7-yl)amino)-2-oxoethyl)azetidine-3-carboxylate]
12 | 10 to 100 nM | Cc1cnc(Nc2cc(C)n(C)n2)nc1-c1c[nH]c2c(NC(=O)CN3CC(C(=O)O)C3)cccc12 [Example 32, 1-(2-((3-(2-((1,5-dimethyl-1H-pyrazol-3-yl)amino)-5-methylpyrimidin-4-yl)-1H-indol-7-yl)amino)-2-oxoethyl)azetidine-3-carboxylic acid]
13 | 10 to 100 nM | Cc1cnc(Nc2cc(C)n(C)n2)nc1-c1c[nH]c2c(NC(=O)CN3CC(Oc4cc(C(=O)NC5CC5)on4)C3)cccc12 [Example 33, N-cyclopropyl-3-((1-(2-((3-(2-((1,5-dimethyl-1H-pyrazol-3-yl)amino)-5-methylpyrimidin-4-yl)-1H-indol-7-yl)amino)-2-oxoethyl)azetidin-3-yl)oxy)isoxazole-5-carboxamide]
14 | 100 to 1000 nM | Cc1cnc(Nc2cc(C)n(C)n2)nc1-c1c[nH]c2c(NC(=O)CN3CC=C(c4ccncc4)CC3)cccc12 [Example 34, 2-(3,6-dihydro-[4,4′-bipyridin]-1(2H)-yl)-N-(3-(2-((1,5-dimethyl-1H-pyrazol-3-yl)amino)-5-methylpyrimidin-4-yl)-1H-indol-7-yl)acetamide]
15 | 100 to 1000 nM | Cc1cnc(Nc2cc(C)n(C)n2)nc1-c1c[nH]c2c(NC(=O)CN3CC=C(c4cnn(C)c4)CC3)cccc12 [Example 35, N-(3-(2-((1,5-dimethyl-1H-pyrazol-3-yl)amino)-5-methylpyrimidin-4-yl)-1H-indol-7-yl)-2-(4-(1-methyl-1H-pyrazol-4-yl)-3,6-dihydropyridin-1(2H)-yl)acetamide]
16 | 100 to 1000 nM | Cc1cnc(Nc2cc(C)n(C)n2)nc1-c1c[nH]c2c(NC(=O)CN3CCC(N4CCN(C)CC4)CC3)cccc12 [Example 36, N-(3-(2-((1,5-dimethyl-1H-pyrazol-3-yl)amino)-5-methylpyrimidin-4-yl)-1H-indol-7-yl)-2-(4-(4-methylpiperazin-1-yl)piperidin-1-yl)acetamide]
17 | 100 to 1000 nM | Cc1cnc(Nc2cc(C)n(C)n2)nc1-c1c[nH]c2c(NC(=O)CN3CCC(N4CCOCC4)CC3)cccc12 [Example 37, N-(3-(2-((1,5-dimethyl-1H-pyrazol-3-yl)amino)-5-methylpyrimidin-4-yl)-1H-indol-7-yl)-2-(4-morpholinopiperidin-1-yl)acetamide]
18 | 100 to 1000 nM | Cc1cnc(Nc2cc(C)n(C)n2)nc1-c1c[nH]c2c(NC(=O)CN3CCC(Oc4cccnc4)CC3)cccc12 [Example 38, N-(3-(2-((1,5-dimethyl-1H-pyrazol-3-yl)amino)-5-methylpyrimidin-4-yl)-1H-indol-7-yl)-2-(4-(pyridin-3-yloxy)piperidin-1-yl)acetamide]
19 | 100 to 1000 nM | Cc1cnc(Nc2cc(C)n(C)n2)nc1-c1c[nH]c2c(NC(=O)CN3CCC(Oc4ccccn4)CC3)cccc12 [Example 39, N-(3-(2-((1,5-dimethyl-1H-pyrazol-3-yl)amino)-5-methylpyrimidin-4-yl)-1H-indol-7-yl)-2-(4-(pyridin-2-yloxy)piperidin-1-yl)acetamide]
20 | 100 to 1000 nM | Cc1cnc(Nc2cc(C)n(C)n2)nc1-c1c[nH]c2c(NC(=O)CN3CCC(Oc4ccncc4)CC3)cccc12 [Example 40, N-(3-(2-((1,5-dimethyl-1H-pyrazol-3-yl)amino)-5-methylpyrimidin-4-yl)-1H-indol-7-yl)-2-(4-(pyridin-4-yloxy)piperidin-1-yl)acetamide]
21 | 10 to 100 nM | Cc1cnc(Nc2cc(C)n(C)n2)nc1-c1c[nH]c2c(NC(=O)CN3CCC(Oc4ncccn4)CC3)cccc12 [Example 41, N-(3-(2-((1,5-dimethyl-1H-pyrazol-3-yl)amino)-5-methylpyrimidin-4-yl)-1H-indol-7-yl)-2-(4-(pyrimidin-2-yloxy)piperidin-1-yl)acetamide]
22 | 10 to 100 nM | Cc1cc(C)nc(OC2CCN(CC(=O)Nc3cccc4c(-c5nc(Nc6cc(C)n(C)n6)ncc5C)c[nH]c34)CC2)n1 [Example 42, N-(3-(2-((1,5-dimethyl-1H-pyrazol-3-yl)amino)-5-methylpyrimidin-4-yl)-1H-indol-7-yl)-2-(4-((4,6-dimethylpyrimidin-2-yl)oxy)piperidin-1-yl)acetamide]
23 | 10 to 100 nM | Cc1cnc(Nc2cc(C)n(C)n2)nc1-c1c[nH]c2c(NC(=O)CN3CCC(Oc4cc(C(=O)NC5CC5)on4)CC3)cccc12 [Example 43, N-cyclopropyl-3-((1-(2-((3-(2-((1,5-dimethyl-1H-pyrazol-3-yl)amino)-5-methylpyrimidin-4-yl)-1H-indol-7-yl)amino)-2-oxoethyl)piperidin-4-yl)oxy)isoxazole-5-carboxamide]
24 | 100 to 1000 nM | Cc1cnc(Nc2cc(C)n(C)n2)nc1-c1c[nH]c2c(NC(=O)CN3CCCC(Oc4cc(C(=O)NC5CC5)on4)C3)cccc12 (stereo not drawn) [Example 44, N-cyclopropyl-3-((1-(2-((3-(2-((1,5-dimethyl-1H-pyrazol-3-yl)amino)-5-methylpyrimidin-4-yl)-1H-indol-7-yl)amino)-2-oxoethyl)piperidin-3-yl)oxy)isoxazole-5-carboxamide]
